# PubChem BioAssay AID611 (The Scripps Research Institute Molecular Screening Center, 2007)
# Calls of active or inactive are those of the source.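 The calls were made as follows: active = IC50 at or below 10 micromolar, estimated by hand when no curve fit or under half inhibition at top dose; inactive = IC50 above 10 micromolar.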
# Molecular target: Steroidogenic factor 1 (Homo sapiens) (UniProt Q13285)
# Experiment: SF-1 inhibitors in Gal4 reporter counter-screen, dose response, counter-screen for RORA inhibitor project, cell-based, CHO-K1, Gal4-SF-1 LBD, luciferase luminescence (AID 611)
# Conditions: CHO-K1 Gal4-SF-1 LBD luciferase reporter
# Steroidogenic factor 1 (Homo sapiens), sequence (Q13285 whole entry, looked up, the tested form may be a part): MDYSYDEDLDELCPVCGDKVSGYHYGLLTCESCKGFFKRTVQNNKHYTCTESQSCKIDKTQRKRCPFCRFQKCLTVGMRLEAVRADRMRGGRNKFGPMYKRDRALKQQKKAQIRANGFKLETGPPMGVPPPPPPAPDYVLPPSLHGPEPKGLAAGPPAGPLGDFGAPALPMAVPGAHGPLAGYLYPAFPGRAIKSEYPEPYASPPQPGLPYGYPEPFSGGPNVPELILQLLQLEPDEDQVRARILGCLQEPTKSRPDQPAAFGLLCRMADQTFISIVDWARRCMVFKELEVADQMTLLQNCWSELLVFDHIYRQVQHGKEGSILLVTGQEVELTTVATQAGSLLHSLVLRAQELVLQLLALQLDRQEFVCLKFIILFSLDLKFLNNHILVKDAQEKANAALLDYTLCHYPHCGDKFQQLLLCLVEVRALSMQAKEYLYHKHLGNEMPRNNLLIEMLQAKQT
row,IC50,Compound
1,2550 nM,Cn1nc(CC(=O)Nc2ccc(N3CCN(C(=O)OC(C)(C)C)CC3)cc2)c2ccccc2c1=O
2,> 99000 nM (inactive),O=C(O)CCCCCN1C(=O)CSC1=S
3,675 nM,COc1cc(/C=N/O)ccc1OCc1ccc(C(=O)O)cc1
4,2140 nM,O=S(=O)(c1ccc2c(c1)C(=NO)c1cc(S(=O)(=O)N3CCCCC3)ccc1-2)N1CCCCC1
5,1500 nM,O=C(/C=C\Nc1ccc2c(c1)OCO2)c1ccccn1
6,6660 nM,COC(=O)C1=C(CN2CCCc3ccccc32)NC(=O)NC1c1ccc(F)cc1 (centres undefined)
7,inactive,CC(=O)CC1OC(=O)C(Br)=C1NCc1ccccc1 (centres undefined)
8,4880 nM,O=C(/C=C\Nc1ccccn1)c1ccc(Cl)cc1
9,1500 nM,Cc1ccc(C(=O)/C=C/Nc2ccccn2)cc1
